These results are taken from US20220072095A1, “METHODS AND COMPOSITIONS FOR TREATING SKIN DISEASES” (VANDERBILT UNIVERSITY, priority 2018, published 2022).

Series [1] in a line: Solubility of NTM peptides. Format: physicochemical. To be noted: cSN50: depending on the method of synthesis and purification; read-out: soluble at levels of. As for the experimental part: cSN50.1 is a cyclized peptide having the sequence of cSN50 with the exception that the tyrosine at position 18 of cSN50, adjacent to the first cysteine, has been removed. Methods of making and using cSN50 are described, for example, in U.S. Pat. Nos. 7,553,929 and 6,495,518. The amino acid sequence of cSN50.1 is […] (SEQ ID NO: 2). The tyrosine at position 18 was removed from the sequence of cSN50 to increase solubility. cSN50 is soluble at levels of ranging from 2.0 mg/mL to 40 mg/mL depending on the method of synthesis and purification whereas cSN50.1 is soluble at levels of at least 100 mg/ml. Any mimetics, derivatives, or homologs of cSN50.1 may be used in the compositions, methods, and kits disclosed herein. cSN50.1 is also encompassed by SEQ ID NO: 3, SEQ ID NO: 4 and SEQ ID NO: 5. Additional examples of NTMs include fragment-designed and synthesized peptides in which cargo is incorporated as two, rather than one, modules or cargos derived from intracellular proteins other than NFκB 1. Such additional examples include the sequences of SEQ ID NO: 6, SEQ ID NO: 7, SEQ ID NO: 8, and SEQ ID NO: 9.

The target in series [2] is Imp beta (Homo sapiens, UniProt Q14974). To be noted: cell culture and preclinical studies.
Sequence of Imp beta (Q14974 whole entry, looked up): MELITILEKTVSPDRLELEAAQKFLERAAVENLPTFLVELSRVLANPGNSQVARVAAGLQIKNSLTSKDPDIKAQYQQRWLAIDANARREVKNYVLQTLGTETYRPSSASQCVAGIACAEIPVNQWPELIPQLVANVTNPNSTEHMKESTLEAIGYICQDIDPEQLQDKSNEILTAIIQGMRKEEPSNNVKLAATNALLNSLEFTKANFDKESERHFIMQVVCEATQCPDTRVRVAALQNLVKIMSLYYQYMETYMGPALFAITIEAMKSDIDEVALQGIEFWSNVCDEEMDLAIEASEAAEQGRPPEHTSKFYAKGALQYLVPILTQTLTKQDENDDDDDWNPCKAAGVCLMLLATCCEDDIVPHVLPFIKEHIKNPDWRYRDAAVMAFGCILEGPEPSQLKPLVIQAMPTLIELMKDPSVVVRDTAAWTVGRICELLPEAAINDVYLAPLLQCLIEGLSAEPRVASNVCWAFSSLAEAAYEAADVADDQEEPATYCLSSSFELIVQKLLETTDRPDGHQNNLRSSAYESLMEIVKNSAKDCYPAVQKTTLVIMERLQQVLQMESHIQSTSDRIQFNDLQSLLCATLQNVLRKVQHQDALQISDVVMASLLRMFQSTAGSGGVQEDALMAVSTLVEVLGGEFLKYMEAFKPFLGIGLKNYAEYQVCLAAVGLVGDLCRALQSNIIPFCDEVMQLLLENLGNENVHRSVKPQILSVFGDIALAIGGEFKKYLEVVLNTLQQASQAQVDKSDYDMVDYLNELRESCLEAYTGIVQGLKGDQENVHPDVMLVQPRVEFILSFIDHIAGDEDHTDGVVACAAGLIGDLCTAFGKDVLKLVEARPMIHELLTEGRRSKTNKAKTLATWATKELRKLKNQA

Converted amounts (≈) assume the structure as drawn. Bridge positions count the residues as written; N and C are the ends. Peptide text beside a SMILES is read from it.

For the compound `CSCC[C@@H]1NC(=O)[C@H](CC(C)C)NC(=O)[C@H](CCCCN)NC(=O)[C@H](CCC(N)=O)NC(=O)[C@H](CCCNC(=N)N)NC(=O)[C@H](CCCCN)NC(=O)[C@H](CCCNC(=N)N)NC(=O)[C@H](CCC(N)=O)NC(=O)[C@H](C(C)C)NC(=O)[C@@H](NC(=O)[C@@H]2CCCN2C(=O)[C@H](C)NC(=O)[C@H](CC(C)C)NC(=O)[C@H](CC(C)C)NC(=O)[C@H](C)NC(=O)[C@H](CC(C)C)NC(=O)[C@H](CC(C)C)NC(=O)[C@@H](NC(=O)[C@H](C)NC(=O)[C@@H]2CCCN2C(=O)[C@H](CC(C)C)NC(=O)[C@H](CC(C)C)NC(=O)[C@H](C)NC(=O)[C@@H](NC(=O)[C@H](C)NC(=O)[C@H](C)N)C(C)C)C(C)C)CSSC[C@@H](C(=O)O)NC(=O)[C@@H]2CCCN2C1=O` [cSN50.1] (H-AAVALLPAVLLALLAPCVQRKRQKLMPC-OH; disulfide 17-28; N-terminus and C-terminus assumed), the solubility in series [1] is not below 100 mg/mL.
Regarding `CSCC[C@@H]1NC(=O)[C@H](CC(C)C)NC(=O)[C@H](CCCCN)NC(=O)[C@H](CCC(N)=O)NC(=O)[C@H](CCCNC(=N)N)NC(=O)[C@H](CCCCN)NC(=O)[C@H](CCCNC(=N)N)NC(=O)[C@H](CCC(N)=O)NC(=O)[C@H](C(C)C)NC(=O)[C@H](Cc2ccc(O)cc2)NC(=O)[C@@H](NC(=O)[C@@H]2CCCN2C(=O)[C@H](C)NC(=O)[C@H](CC(C)C)NC(=O)[C@H](CC(C)C)NC(=O)[C@H](C)NC(=O)[C@H](CC(C)C)NC(=O)[C@H](CC(C)C)NC(=O)[C@@H](NC(=O)[C@H](C)NC(=O)[C@@H]2CCCN2C(=O)[C@H](CC(C)C)NC(=O)[C@H](CC(C)C)NC(=O)[C@H](C)NC(=O)[C@@H](NC(=O)[C@H](C)NC(=O)[C@H](C)N)C(C)C)C(C)C)CSSC[C@@H](C(=O)O)NC(=O)[C@@H]2CCCN2C1=O` [cSN50] (H-AAVALLPAVLLALLAPCYVQRKRQKLMPC-OH; disulfide 17-29; N-terminus and C-terminus assumed), the solubility in series [1] was in the range of 2 to 40 mg/mL (≈ 0.635 to 12.7 mM).
Consider AAVALLPAVLLALLAPCVQRDEQKLMPC [cSN50.1β], for which the “importin selectivity (Comments)” value in series [2] is recorded as “Imp beta-selective”.
